From patent US20100184596A1, “METHOD FOR THE CONTROL OF WEEDS IN TURF” (SYNGENTA CROP PROTECTION, INC., priority 2007, published 2010)

Experiments:
Assay type in all cases: in vivo
turfgrass = experiment: Example B2, conclusion in words; details: spray
Experimental: (§1) The phytotoxicity of the compound of formula I to turfgrass species was tested. The compound was applied via post emergence spray to a range of warm and cool season turfgrass species at various rates and spray treatment treatment regimes. Percentage phytotoxicity assessments were taken at various timepoints.

Tall fescue v. Coronado = experiment: Phytotoxicity via granule application, various inert granules (Table B3.3); details: 8 DAT
Experimental: The phytotoxicity of the compound of formula I to turfgrass species was tested. The compound was applied by distribution of granule formulations of formula I, post emergence, to turfgrass species at two rates. All treatments were watered-in 1 day after application. Percentage phytotoxicity assessments were taken at various timepoints.
In Tables B3.3 and B3.4, the granular formulations tested were made by spraying the compound of formula I onto various inert granules. In each of these trials, the granule formulations were tested at a higher rate than the corresponding spray application

St. Augustinegrass = experiment: Phytotoxicity via post emergence spray application (Table B2.1)
Experimental: as §1

[1] = tested on: Hydrocotyle sp. (dollarweed); experiment: Example B7, conclusion in words
Experimental: The weed control efficacy of the compound of formula I in combination with various safeners was tested. The combinations were applied by post emergence spray application. Percentage weed control assessments were taken at various timepoints.

turfgrass weeds = experiment: Example B5, conclusion in words; details: post emergence spray
Experimental: (§2) The weed control efficacy of the compound of formula I was tested. The compound was applied via post emergence spray to a range of weeds, at various rates and spray treatment treatment regimes. Percentage weed control assessments were taken at various timepoints.

Tall fescue = experiment: Selective post-emergence herbicidal action, field trial Hudson (Table B1.2); details: 28 days after application
Experimental: (§3) The selectivity of the compound of formula I in turf (removal of grassy and broadleaf weeds) has been tested in turfgrass varieties selected from Kentucky bluegrass, tall fescue and perennial ryegrass and in […] selected from clover (an aggressive perennial weed) and dandelion (a weed of perennial horticultural crops and gardens which may also be a problem in some annual crops, particularly where reduced tillage is practiced).
(§4) The trials were conducted in Champaign, Ill., U.S. (Table B1.1) and Hudson, N.Y., U.S. (Table B1.2) under field conditions. Turfgrasses were maintained at approximately a 2.5″ height, like a home lawn. Mixed turf and weed stands were present. The test compounds were applied with a CO2 pressurized backpack sprayer by spraying in the form of an aqueous suspension (prepared from a wettable powder) in a concentration of 210 to 280 g/ha. The plots were then mowed and irrigated as needed. After 22 and 28 days respectively, the test is visually evaluated (100%=total damage to plant; 0%=no damage to plant).

Dandelion = experiment: as above; details: 28 days after application
Experimental: as §3, §4

[2] = tested on: Trifolium repens (clover); experiment: Weed control via post emergence spray, in bluegrass/fescue mix (Table B5.6)
Experimental: as §2

[3] = tested on: Trifolium repens (white clover); experiment: Weed control via post emergence spray, in St. Augustinegrass v. Floratam (Table B5.4)
Experimental: as §2

For `COCCOCc1nc(C(F)(F)F)ccc1C(=O)C1=C(O)C2CCC(C2)C1=O` (stereo not shown) [Formula I, 4-Hydroxy-3-[2-(2-methoxyethoxymethyl)-6-trifluoromethylpyridine-3-carbonyl]-bicyclo[3.2.1]oct-3-en-2-one], the “phytotoxicity to turfgrass, in words” value (turfgrass; applied at low rates) was “levels of phytotoxicity to turfgrass are acceptable”, the “phytotoxicity by turfgrass type, in words” value (turfgrass; cool season versus warm season species) was “lower on cool season turfgrass species” and the “% phytotoxicity” value (Tall fescue v. Coronado; Agsorb LUM GA granule, 680 g ai/ha) was 23.8%. The “% phytotoxicity” value (Tall fescue v. Coronado; Agsorb LUM MS granule, 680 g ai/ha) was 9.3%, the “% phytotoxicity” value (Tall fescue v. Coronado; Agsorb RUM GA granule, 680 g ai/ha) was 18.8% and the “% phytotoxicity” value (Tall fescue v. Coronado; Bio Dac granule, 680 g ai/ha) was 13.8%. For the same compound, the “% phytotoxicity” value (Tall fescue v. Coronado; DG Lite granule, 680 g ai/ha) was 20.0%, the “% phytotoxicity” value (Tall fescue v. Coronado; Eco Gran granule, 680 g ai/ha) was 20.0% and the “% phytotoxicity” value (Tall fescue v. Coronado; Non dispersing extruded granules, 680 g ai/ha) was 21.3%. For the same compound, the “% phytotoxicity” value (Tall fescue v. Coronado; Oil dry granule, 680 g ai/ha) was 12.5%, the “% phytotoxicity” value (Tall fescue v. Coronado; Spray, 340 g ai/ha) was 18.8% and the “% phytotoxicity” value (St. Augustinegrass; 1 appl, 140 g ai/ha, 8 DAT) was 36.67%. For the same compound, the “% phytotoxicity” value (St. Augustinegrass; 1 appl, 140 g ai/ha, 14 DAT) was 28.33%, the “% phytotoxicity” value (St. Augustinegrass; 1 appl, 140 g ai/ha, 29 DAT) was 0.00% and the “% phytotoxicity” value (St. Augustinegrass; 1 appl, 140 g ai/ha, 35 DAT) was 0.00%. The “% phytotoxicity” value (St. Augustinegrass; 1 appl, 140 g ai/ha, 43 DAT) was 0.00%, the “% phytotoxicity” value (St. Augustinegrass; 1 appl, 140 g ai/ha, 51 DAT) was 0.00% and the “% phytotoxicity” value (St. Augustinegrass; 1 appl, 280 g ai/ha, 8 DAT) was 40.00%. The “% phytotoxicity” value (St. Augustinegrass; 1 appl, 280 g ai/ha, 14 DAT) was 43.33%, the “% phytotoxicity” value (St. Augustinegrass; 1 appl, 280 g ai/ha, 29 DAT) was 0.00% and the “% phytotoxicity” value (St. Augustinegrass; 1 appl, 280 g ai/ha, 35 DAT) was 0.00%. The “% phytotoxicity” value (St. Augustinegrass; 1 appl, 280 g ai/ha, 43 DAT) was 0.00%, the “% phytotoxicity” value (St. Augustinegrass; 1 appl, 280 g ai/ha, 51 DAT) was 0.00% and the “% phytotoxicity” value (St. Augustinegrass; 2 appl, 140 g ai/ha, 8 DAT) was 43.33%. The “% phytotoxicity” value (St. Augustinegrass; 2 appl, 140 g ai/ha, 14 DAT) was 40.00%, the “% phytotoxicity” value (St. Augustinegrass; 2 appl, 140 g ai/ha, 29 DAT) was 0.00% and the “% phytotoxicity” value (St. Augustinegrass; 2 appl, 140 g ai/ha, 35 DAT) was 28.33%. The “% phytotoxicity” value (St. Augustinegrass; 2 appl, 140 g ai/ha, 43 DAT) was 8.33%, the “% phytotoxicity” value (St. Augustinegrass; 2 appl, 140 g ai/ha, 51 DAT) was 1.67% and the “% phytotoxicity” value (St. Augustinegrass; 2 appl, 280 g ai/ha, 8 DAT) was 41.67%. The “% phytotoxicity” value (St. Augustinegrass; 2 appl, 280 g ai/ha, 14 DAT) was 51.67%, the “% phytotoxicity” value (St. Augustinegrass; 2 appl, 280 g ai/ha, 29 DAT) was 0.00% and the “% phytotoxicity” value (St. Augustinegrass; 2 appl, 280 g ai/ha, 35 DAT) was 30.00%. The “% phytotoxicity” value (St. Augustinegrass; 2 appl, 280 g ai/ha, 43 DAT) was 11.67%, the “% phytotoxicity” value (St. Augustinegrass; 2 appl, 280 g ai/ha, 51 DAT) was 5.00% and the “herbicidal efficacy in presence of a safener, in words” value [1] was “does not significantly effect the herbicidal efficacy”. The “weed control, in words” value (turfgrass weeds) was “effective at controlling a variety of turfgrass weeds, even when applied at low rates”, the “% damage” value (Tall fescue; 210 g/ha) was 0% and the “% damage” value (Tall fescue; 280 g/ha) was 0%. For the same compound, the “% damage” value (Dandelion; 210 g/ha) was 82.5%, the “% damage” value (Dandelion; 280 g/ha) was 90% and the “% control” value ([2]; 10 g ai/ha, 7 DAT) was 0.00%. For the same compound, the “% control” value ([2]; 10 g ai/ha, 14 DAT) was 21.25%, the “% control” value ([2]; 10 g ai/ha, 22 DAT) was 23.75% and the “% control” value ([2]; 10 g ai/ha, 29 DAT) was 8.75%. For the same compound, the “% control” value ([2]; 10 g ai/ha, 46 DAT) was 10.00%, the “% control” value ([2]; 20 g ai/ha, 7 DAT) was 0.00% and the “% control” value ([2]; 20 g ai/ha, 14 DAT) was 22.50%. For the same compound, the “% control” value ([2]; 20 g ai/ha, 22 DAT) was 28.75%, the “% control” value ([2]; 20 g ai/ha, 29 DAT) was 22.50% and the “% control” value ([2]; 20 g ai/ha, 46 DAT) was 28.75%. For the same compound, the “% control” value ([2]; 40 g ai/ha, 7 DAT) was 11.25%, the “% control” value ([2]; 40 g ai/ha, 14 DAT) was 21.25% and the “% control” value ([2]; 40 g ai/ha, 22 DAT) was 22.50%. The “% control” value ([2]; 40 g ai/ha, 29 DAT) was 35.00%, the “% control” value ([2]; 40 g ai/ha, 46 DAT) was 47.50% and the “% control” value ([2]; 80 g ai/ha, 7 DAT) was 17.50%. The “% control” value ([2]; 80 g ai/ha, 14 DAT) was 22.50%, the “% control” value ([2]; 80 g ai/ha, 22 DAT) was 30.00% and the “% control” value ([2]; 80 g ai/ha, 29 DAT) was 52.50%. For the same compound, the “% control” value ([2]; 80 g ai/ha, 46 DAT) was 81.25%, the “% control” value ([2]; 160 g ai/ha, 7 DAT) was 22.50% and the “% control” value ([2]; 160 g ai/ha, 14 DAT) was 27.50%. The “% control” value ([2]; 160 g ai/ha, 22 DAT) was 41.25%, the “% control” value ([2]; 160 g ai/ha, 29 DAT) was 76.25% and the “% control” value ([2]; 160 g ai/ha, 46 DAT) was 91.25%. For the same compound, the “% control” value ([3]; 1 appl, 140 g ai/ha, 5 DAT) was 21.67%, the “% control” value ([3]; 1 appl, 140 g ai/ha, 13 DAT) was 86.67% and the “% control” value ([3]; 1 appl, 140 g ai/ha, 21 DAT) was 85.00%. The “% control” value ([3]; 1 appl, 140 g ai/ha, 27 DAT) was 88.33%, the “% control” value ([3]; 1 appl, 140 g ai/ha, 35 DAT) was 78.33% and the “% control” value ([3]; 1 appl, 140 g ai/ha, 42 DAT) was 76.67%. For the same compound, the “% control” value ([3]; 1 appl, 140 g ai/ha, 61 DAT) was 76.67%, the “% control” value ([3]; 1 appl, 280 g ai/ha, 5 DAT) was 25.00% and the “% control” value ([3]; 1 appl, 280 g ai/ha, 13 DAT) was 91.67%. The “% control” value ([3]; 1 appl, 280 g ai/ha, 21 DAT) was 90.00%, the “% control” value ([3]; 1 appl, 280 g ai/ha, 27 DAT) was 93.33% and the “% control” value ([3]; 1 appl, 280 g ai/ha, 35 DAT) was 91.67%. The “% control” value ([3]; 1 appl, 280 g ai/ha, 42 DAT) was 90.00%, the “% control” value ([3]; 1 appl, 280 g ai/ha, 61 DAT) was 90.00% and the “% control” value ([3]; 2 appl, 140 g ai/ha, 5 DAT) was 25.00%. The “% control” value ([3]; 2 appl, 140 g ai/ha, 13 DAT) was 88.33%, the “% control” value ([3]; 2 appl, 140 g ai/ha, 21 DAT) was 86.67% and the “% control” value ([3]; 2 appl, 140 g ai/ha, 27 DAT) was 91.67%. The “% control” value ([3]; 2 appl, 140 g ai/ha, 35 DAT) was 96.00%, the “% control” value ([3]; 2 appl, 140 g ai/ha, 42 DAT) was 96.67% and the “% control” value ([3]; 2 appl, 140 g ai/ha, 61 DAT) was 100.00%. The “% control” value ([3]; 2 appl, 280 g ai/ha, 5 DAT) was 26.67%, the “% control” value ([3]; 2 appl, 280 g ai/ha, 13 DAT) was 95.00% and the “% control” value ([3]; 2 appl, 280 g ai/ha, 21 DAT) was 93.33%. For the same compound, the “% control” value ([3]; 2 appl, 280 g ai/ha, 27 DAT) was 95.00%, the “% control” value ([3]; 2 appl, 280 g ai/ha, 35 DAT) was 99.33% and the “% control” value ([3]; 2 appl, 280 g ai/ha, 42 DAT) was 100.00%. The “% control” value ([3]; 2 appl, 280 g ai/ha, 61 DAT) was 100.00%.
